Measurements published in PMC7435853, “L-Malate (−2) Protonation State is Required for Efficient Decarboxylation to L-Lactate by the Malolactic Enzyme of Oenococcus oeni” (Molecules, 2020).

Target: T1, malolactic enzyme (MLE) (Oenococcus oeni, UniProt Q04DQ3)
T1 construct: gene OEOE_1564; full-length gene (1626 bp), His-tagged (HisTrap) from pET vector (text says pET28a and pET21a), E. coli BL21(DE3); reported dimer
T1 sequence (Q04DQ3 1-541): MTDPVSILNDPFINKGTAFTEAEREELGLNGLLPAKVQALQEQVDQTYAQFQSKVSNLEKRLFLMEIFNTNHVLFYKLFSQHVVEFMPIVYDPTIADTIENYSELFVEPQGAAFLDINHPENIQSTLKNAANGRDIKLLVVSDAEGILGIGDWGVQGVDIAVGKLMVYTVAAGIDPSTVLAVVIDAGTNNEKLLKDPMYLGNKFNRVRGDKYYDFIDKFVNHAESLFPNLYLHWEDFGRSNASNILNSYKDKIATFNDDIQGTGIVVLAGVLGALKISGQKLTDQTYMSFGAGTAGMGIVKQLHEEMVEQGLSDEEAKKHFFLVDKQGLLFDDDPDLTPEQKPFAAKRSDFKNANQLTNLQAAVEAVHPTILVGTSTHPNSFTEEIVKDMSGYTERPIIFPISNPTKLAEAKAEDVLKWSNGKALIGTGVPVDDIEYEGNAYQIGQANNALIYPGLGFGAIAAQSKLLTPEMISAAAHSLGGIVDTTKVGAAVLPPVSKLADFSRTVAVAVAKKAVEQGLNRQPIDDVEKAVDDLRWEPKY
Experiment: isothermal titration calorimetry
Type: binding
Excerpt: isothermal titration calorimetry on malolactic enzyme (MLE)

| Compound | Kd |
| --- | --- |
| O=C(O)C[C@H](O)C(=O)O [MAL^2−, L-malate (−2)] | 1290 nM |
| O=C(O)C[C@H](O)C(=O)O [MAL^−, L-malate (−1)] | 3190 nM |
